Results published in patent publication US11413278B2, “Compounds and methods for promoting stress resistance” (priority 2015, dated 2022).
“Also recorded” adds a separate entry of the source. Like-named read-outs stand apart in the source and are kept apart here.

Legend:
C. elegans = type: in vivo, Caenorhabditis elegans
Method: The worms were treated with the small molecules in liquid, with H2O2 (500 μM final concentration) added on day 4 of adulthood, and scored for viability everyday
FUdR was used to block progeny production. The molecules were analyzed in 96-well plates, with 4 wells for each small molecule. Multiple control wells with DMSO (0.2% final concentration) were included. […] Day 1 adults were transferred onto mini-plates, seeded with OP50 bacteria (UV-irradiated, kanamycin-treated) and supplemented with small molecules (˜60 μM final concentration, 0.2% DMSO). Worms were scored every other day. Cumulative survival was analyzed using the STATA software (log-rank test). […] The worms were treated with the small molecules in liquid, with H2O2 (500 μM final concentration) added on day 4 of adulthood, and scored for viability every day.

FOXO3 = test: qPCR analysis of FOXO3-regulated genes; type: cell-based, human; conditions: for fold induction at 10 µM: Homo sapiens; for K = Sestrin induction: score; for Induction of at least two of five FOXO3-regulated genes (SOD2, GADD45A, CAT, DDB1, TXNIP): WI-38
How it was run: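 FOXO3 target-gene expression quantified by qPCR normalised to B2M, PPIA and GAPDH, in WI-38 cells after 24 h exposure to 10 μM compound. Some runs used cells first transfected 36 h with 10 nM FOXO3 or NRF2 siRNA and replated ~24 h before dosing.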

human PARP1 = target: T1, human PARP1 (Homo sapiens, UniProt P09874); test: PARP inhibitor assay (HT Fluorescent Homogeneous PARP Inhibition Assay Kit); type: biochemical; conditions: score
T1 construct: purchased Trevigen
How it was run: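 Compounds (10 μM final) incubated 30 min, room temperature, dark, with human PARP1, nicotinamide adenine dinucleotide and activated DNA. Fluorescent signal generated by 1 hr cycling with diaphorase and resazurin, then reaction stopped.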

[1] = 24 h, Assay 10(m), at 10 uM, qPCR, read-out: Induction of FOXO3-regulated genes: CAT normalized fold-change
[2] = 24 h, Assay 10(m), at 10 uM, qPCR, read-out: Induction of FOXO3-regulated genes: DDB1 normalized fold-change
[3] = 24 h, Assay 10(m), at 10 uM, qPCR, read-out: Induction of FOXO3-regulated genes: SESN1 normalized fold-change
[4] = 24 h, Assay 10(m), at 10 uM, qPCR, read-out: Induction of FOXO3-regulated genes: TXNIP normalized fold-change
[5] = 10 μM, 24 hrs, WI-38 cells, qPCR, normalized to B2M, n = 4, read-out: CAT expression, normalized fold change (FOXO3-regulated gene)
[6] = 10 μM, 24 hrs, WI-38 cells, qPCR, normalized to B2M, n = 4, read-out: SESN1 expression, normalized fold change (FOXO3-regulated gene)
[7] = 10 μM, 24 hrs, WI-38 cells, qPCR, normalized to B2M, n = 4, read-out: TXNIP expression, normalized fold change (FOXO3-regulated gene)
[8] = WI-38 cells, 10 μM, 24 hrs, n=4, qPCR normalized by B2M, read-out: DDB1 Normalized fold change
[9] = WI-38 cells, 10 μM, 24 hrs, n=4, qPCR normalized by B2M, read-out: GADD45A Normalized fold change
[10] = WI-38 cells, 10 μM, 24 hrs, n=4, qPCR normalized by B2M, read-out: SESN1 Normalized fold change
[11] = fold change, qPCR, WI-38 cells, 10 μM, 24 hrs, read-out: Summary of effects on FOXO3-regulated genes: CAT
[12] = fold change, qPCR, WI-38 cells, 10 μM, 24 hrs, read-out: Summary of effects on FOXO3-regulated genes: SESN1
[13] = fold change, qPCR, WI-38 cells, 10 μM, 24 hrs, read-out: Summary of effects on FOXO3-regulated genes: TXNIP
[14] = qPCR, WI-38 cells, 10 μM, n=4, 24 hrs, normalized by B2M, read-out: CAT Normalized fold change
[15] = qPCR, WI-38 cells, 10 μM, n=4, 24 hrs, normalized by B2M, read-out: SOD2 Normalized fold change
[16] = qPCR, WI-38 cells, 10 μM, n=4, 24 hrs, normalized by B2M, read-out: TXNIP Normalized fold change
[17] = 10 μM, 24 hrs, WI-38 cells, qPCR, normalized to B2M, n = 4, read-out: DDB1 expression, normalized fold change (FOXO3-regulated gene)
[18] = fold change, qPCR, WI-38 cells, 10 μM, 24 hrs, read-out: Summary of effects on FOXO3-regulated genes: DDB1
[19] = 24 h, Assay 10(m), at 10 uM, qPCR, read-out: Induction of FOXO3-regulated genes: GADD45A normalized fold-change
[20] = 10 μM, 24 hrs, WI-38 cells, qPCR, normalized to B2M, n = 4, read-out: GADD45A expression, normalized fold change (FOXO3-regulated gene)
[21] = fold change, qPCR, WI-38 cells, 10 μM, 24 hrs, read-out: Summary of effects on FOXO3-regulated genes: GADD45A

T1 sequence (P09874 whole entry): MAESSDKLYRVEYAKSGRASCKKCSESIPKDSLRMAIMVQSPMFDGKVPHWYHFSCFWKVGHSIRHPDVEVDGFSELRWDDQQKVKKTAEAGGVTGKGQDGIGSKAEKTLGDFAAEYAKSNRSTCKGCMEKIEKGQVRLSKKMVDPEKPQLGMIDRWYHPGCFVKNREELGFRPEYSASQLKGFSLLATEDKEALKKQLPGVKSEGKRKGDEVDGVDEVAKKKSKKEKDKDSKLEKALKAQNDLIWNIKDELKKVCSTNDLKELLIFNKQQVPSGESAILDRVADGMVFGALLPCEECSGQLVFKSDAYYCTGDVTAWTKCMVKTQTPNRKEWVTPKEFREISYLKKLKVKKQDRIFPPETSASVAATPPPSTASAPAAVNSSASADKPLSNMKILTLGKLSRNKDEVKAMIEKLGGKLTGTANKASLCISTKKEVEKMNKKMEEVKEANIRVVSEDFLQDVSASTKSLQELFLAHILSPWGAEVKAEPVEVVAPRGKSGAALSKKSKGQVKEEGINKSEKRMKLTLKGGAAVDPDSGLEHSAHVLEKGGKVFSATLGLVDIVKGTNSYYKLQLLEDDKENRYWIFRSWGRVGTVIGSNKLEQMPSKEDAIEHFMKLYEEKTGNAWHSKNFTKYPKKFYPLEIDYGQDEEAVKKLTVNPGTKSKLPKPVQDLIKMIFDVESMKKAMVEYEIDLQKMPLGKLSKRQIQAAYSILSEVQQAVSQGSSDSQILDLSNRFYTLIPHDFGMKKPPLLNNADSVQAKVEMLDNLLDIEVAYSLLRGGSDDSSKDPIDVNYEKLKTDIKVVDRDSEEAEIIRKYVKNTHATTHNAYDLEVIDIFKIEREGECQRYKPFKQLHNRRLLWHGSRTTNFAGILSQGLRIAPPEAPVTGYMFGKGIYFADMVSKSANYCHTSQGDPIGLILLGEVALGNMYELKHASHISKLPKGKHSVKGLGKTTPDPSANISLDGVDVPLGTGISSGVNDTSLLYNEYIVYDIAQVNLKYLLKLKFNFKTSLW

SMILES	L = H2O2-resistance in worms (C. elegans; in vivo)	N = H2O2-resistance in woms (C. elegans; in vivo)	E = Potential FOXO3 Activation (FOXO3; 2-point score)	fold induction at 10 µM (FOXO3; [1])	fold induction at 10 µM (FOXO3; [2])	fold induction at 10 µM (FOXO3; [3])	fold induction at 10 µM (FOXO3; [5])	fold induction at 10 µM (FOXO3; [6])	fold induction at 10 µM (FOXO3; [8])	fold induction at 10 µM (FOXO3; [9])	fold induction at 10 µM (FOXO3; [10])	fold induction at 10 µM (FOXO3; [11])	fold induction at 10 µM (FOXO3; [12])	fold induction at 10 µM (FOXO3; [14])	fold induction at 10 µM (FOXO3; [15])	fold induction at 10 µM (FOXO3; [16])	K = Sestrin induction (FOXO3)	E = Potential FOXO3 Activation (FOXO3; summary score)	L = PARP inhibition (human PARP1)	H2O2-resistance assay, 1st experiment (C. elegans; in vivo)	also measured
O=[N+]([O-])c1ccccc1S(=O)(=O)Nc1cccc2cccnc12 [Gr-3A]	0	0	0	0.83	0.81	1.21	0.87	1.18	0.969	1.4	1.18	0.87	1.18	0.871	1.48	0.754	0	0	0	–	fold induction at 10 µM (FOXO3; [4]): 0.64; fold induction at 10 µM (FOXO3; [7]): 0.75; fold induction at 10 µM (FOXO3; [13]): 0.75
Cc1ccc(S(=O)(=O)Nc2cccc3cccnc23)cc1 [Gr-3B]	0	0	0	–	–	–	–	–	1.12	1.16	1.07	–	–	1.11	1.14	1.06	0	0	0	YES;	–
Nc1ccccc1S(=O)(=O)Nc1cccc2cccnc12 [Gr-3C]	0	0	0	–	0.79	–	0.87	–	0.985	1.16	1.09	0.87	–	0.868	1.2	1.03	0	0	0	–	–
COc1ccc(C(=O)/C=C/c2ccc(F)cc2)c(OC)c1 [Gr-4A]	–	–	0	1.26	1.2	–	1.26	–	1.2	0.981	1.12	1.26	–	1.26	0.98	0.819	0	0	0	–	N = H2O2-resistance in woms (C. elegans; score): 0; L = H2O2-resistance in worms (C. elegans; summary score): 0; Induction of at least two of five FOXO3-regulated genes (SOD2, GADD45A, CAT, DDB1, TXNIP) (FOXO3; 10 μM, 24 hrs): significant induction; also recorded: significant, induction; fold induction at 10 µM (FOXO3; [17]): 1.2; fold induction at 10 µM (FOXO3; [18]): 1.2
COc1ccc(C(=O)/C=C/c2ccccc2Br)c(OC)c1 [Gr-4B]	–	–	0	–	–	–	–	–	1.06	0.61	0.992	–	–	1.18	1.04	0.792	0	0	0	–	N = H2O2-resistance in woms (C. elegans; score): 0; L = H2O2-resistance in worms (C. elegans; summary score): 0
COc1ccc(C(=O)/C=C/c2cccc(Cl)c2)c(OC)c1 [Gr-4C]	–	–	0	1.19	1.51	1.42	1.19	1.42	1.51	1.23	1.42	1.19	1.42	1.19	1.04	0.179	0	0	0	–	N = H2O2-resistance in woms (C. elegans; score): 0; L = H2O2-resistance in worms (C. elegans; summary score): 0; Induction of at least two of five FOXO3-regulated genes (SOD2, GADD45A, CAT, DDB1, TXNIP) (FOXO3; 10 μM, 24 hrs): significant induction; also recorded: significant, induction; fold induction at 10 µM (FOXO3; [19]): 1.23; fold induction at 10 µM (FOXO3; [4]): 0.18; fold induction at 10 µM (FOXO3; [17]): 1.51; fold induction at 10 µM (FOXO3; [20]): 1.23; fold induction at 10 µM (FOXO3; [7]): 0.18; fold induction at 10 µM (FOXO3; [18]): 1.51; fold induction at 10 µM (FOXO3; [21]): 1.23; fold induction at 10 µM (FOXO3; [13]): 0.18
O=C(/C(=C/c1ccc(Cl)cc1)c1nc2ccccc2[nH]1)c1ccccc1 [Gr-4D]	0	0	0	1.37	1.41	2.16	1.37	2.16	1.41	2.11	2.16	1.37	2.16	1.37	1.2	1.09	1	0	0	YES;	Induction of at least two of five FOXO3-regulated genes (SOD2, GADD45A, CAT, DDB1, TXNIP) (FOXO3; 10 μM, 24 hrs): could induce both FOXO3- and NRF2-regulated genes; also recorded: significant induction; also recorded: significant, induction; SOD2 expression, normalized fold change (FOXO3-regulated gene) (FOXO3; 10 μM, 24 hrs, WI-38 cells, qPCR, normalized to B2M, n = 4): SOD2 1.20, fold; fold induction at 10 µM (FOXO3; [19]): 2.11; fold induction at 10 µM (FOXO3; 24 h, Assay 10(m), at 10 uM, qPCR, read-out: Induction of FOXO3-regulated genes: SOD2 normalized fold-change): 1.2; fold induction at 10 µM (FOXO3; WI-38, 24 h, read-out: SESN1 expression): > 1.5; fold induction at 10 µM (FOXO3; [17]): 1.41; fold induction at 10 µM (FOXO3; [20]): 2.11; fold induction at 10 µM (FOXO3; [18]): 1.41; fold induction at 10 µM (FOXO3; [21]): 2.11; Summary of effects on FOXO3-regulated genes: SOD2 (FOXO3; fold change, qPCR, WI-38 cells, 10 μM, 24 hrs): SOD2 1.20,
CCc1ccc(Oc2nc3ccccn3c(=O)c2/C=C(\C#N)C(=O)NC2CCCCC2)cc1 [Gr-5A]	0	0	0	–	–	–	–	–	1.2	0.841	1.38	–	–	1.17	1.12	1.14	0	0	0	YES;	–
CCc1ccc(Oc2nc3ccccn3c(=O)c2/C=C(\C#N)C(=O)NCc2ccco2)cc1 [Gr-5B]	0	0	0	–	–	–	–	–	1.25	0.808	1.36	–	–	1.42	1.13	1.2	0	0	0	–	–
